According to patent US8242251B2, “Unsymmetrical cyanine dimer compounds and their application” (Life Technologies Corporation, priority 2003, dated 2012):
Entries after “also recorded” stand apart in the source; their conditions may differ.

Legend:
RNA versus DNA = assay: Screening of fluorescence properties and relative fluorescence enhancement with RNA versus DNA (Table 3); format: binding; settings: fluorescence enhancement when associated with RNA to that when associated with DNA
[1] = tested on: Bovine pulmonary arterial endothelial (BPEA) cells; assay: Nucleic acid binding in live eukaryotic cells, BPAE (Example 41); format: cell-based; settings: 10 μM
Protocol: (§1) Bovine pulmonary arterial endothelial (BPEA) cells and HeLa human cervical cancer cells were grown in media for one day after plating on coverslips. Cells were labeled with 1 μM or 10 μM of Compound 21 for HeLa cells, or 10 μM in BPAE cells, in media at 37° C. for 20 minutes, then rinsed twice and mounted in warm medium. Coverslips were examined on a Nikon Eclipse 800 upright fluorescent microscope and imaged with a far red filter set, a Princeton Instruments MicroMax cooled CCD camera, and Universal Imaging MetaMorph imaging software.

[2] = tested on: HeLa human cervical cancer cells; assay: Nucleic acid binding in live eukaryotic cells, HeLa (Example 41); format: cell-based
Protocol: as §1

cell permeability in live cells ([2]; 20 minutes 37° C.): cell permeable
SMILES: C[n+]1c(/C=C2\C=C(N3CCN(C4=C/C(=C\c5oc6ccccc6[n+]5C)c5ccccc5N4c4ccccc4)CC3)N(c3ccccc3)c3ccccc32)oc2ccccc21.[Cl-].[Cl-] [Compound 20]
Fluorescence Enhancement Ratio (RNA/DNA) (RNA versus DNA): 8.5 | labeling pattern in BPAE cells [1]: no specific labeling evident, and much higher off-cell background | selective detection of RNA in live cells [2]: did not demonstrate selective detection of RNA in live cells | labeling pattern in HeLa cells ([2]; 1 μM or 10 μM, far red filter set): mitochondrial labeling, with stronger punctate spots within the mitochondria, typical of mitochondrial DNA staining; also recorded: very dim nucleolar labeling
